Results reported in US7034035B2, “Fungicidal mono-, bi-, and tri-cycloheteroalkyl amides and their compositions, methods of use and preparation” (priority 1999, dated 2006).
Where two headings read alike, the source gives them in different places.

How the values were obtained:
[1] = test system: Magnaporthe grisea (Pyricularia oryzae—PYRIOR); experiment: microbe, parasite or virus in culture; type: cell-based; conditions: for PYRIOR in vitro Growth Inhibition: in vitro fungal growth; for inhibition of growth at 25 µg/mL: Pyricularia oryzae, read-out: PYRIOR in vitro Growth Inhibition
[2] = test system: Rhizoctonia solani (RHIZSO); experiment: microbe, parasite or virus in culture; type: cell-based; conditions: for inhibition of growth at 25 µg/mL: Rhizoctonia solani, read-out: RHIZSO in vitro Growth Inhibition
[3] = test system: Mycosphaerella graminicola (Septoria tritici—SEPTTR); experiment: Inhibition of in vitro fungal growth, SEPTTR; type: cell-based; design: inhibition of growth: dose or concentration left out as unconfirmed; conditions: for inhibition of growth: Zymoseptoria tritici, in vitro fungal growth
[4] = test system: Stagonospora nodorum (Leptosphaeria nodorum—LEPTNO); experiment: Inhibition of in vitro fungal growth, LEPTNO; type: cell-based; design: inhibition of growth: dose or concentration left out as unconfirmed; conditions: for inhibition of growth: Leptosphaeria, in vitro fungal growth
Ustilago maydis (USTIMA) = experiment: microbe, parasite or virus in culture; type: cell-based; conditions: for inhibition of growth at 25 µg/mL: Mycosarcoma maydis, read-out: USTIMA in vitro Growth Inhibition
[5] = test system: Phytophthora infestans (PHYTIN); experiment: microbe, parasite or virus in culture; type: cell-based; conditions: for PHYTIN in vitro Growth Inhibition: in vitro fungal growth; for inhibition of growth at 25 µg/mL: Phytophthora infestans, read-out: PHYTIN in vitro Growth Inhibition
[6] = test system: Phytophthora infestans—PHYTIN; experiment: whole plant or invertebrate; type: in vivo; conditions: for PHYTIN in vivo 1 Day Protectant: inoculated after 24 hours; for pest or weed control at 100 ppm: Phytophthora, in Solanum lycopersicum, 24 h, read-out: PHYTIN in vivo 1 Day Protectant
[7] = test system: Puccinia recondita—PUCCRT; experiment: Brown Rust of Wheat, in vivo whole plant, 24 Hour Protectant; conditions: inoculated after 24 hours; for pest or weed control at 100 ppm: Puccinia, read-out: PUCCRT in vivo 1 Day Protectant
Septoria tritici—SEPTTR = experiment: Leaf Blotch of Wheat, in vivo whole plant, 24 Hour Protectant; conditions: for pest or weed control at 100 ppm: Zymoseptoria tritici, read-out: SEPTTR in vivo 1 Day Protectant
[8] = test system: Leptosphaeria nodorum—LEPTNO; experiment: Glume Blotch of Wheat, in vivo whole plant, 24 Hour Protectant; conditions: inoculated after 24 hours; for pest or weed control at 100 ppm: Leptosphaeria, 24 h, read-out: LEPTNO in vivo 1 Day Protectant
Erysiphe graminis—ERYSGT = experiment: Powdery Mildew of Wheat, in vivo whole plant, 24 Hour Protectant; conditions: for ERYSGT in vivo 1 Day Protectant: wheat (cultivar Monon), sprayed at 100 ppm, inoculated after 24 hours, control of fungal infection vs untreated plants; for pest or weed control at 100 ppm: Erysiphe, in Triticum aestivum, 24 h, read-out: ERYSGT in vivo 1 Day Protectant
[9] = tomato (cultivar Rutgers), sprayed at 100 ppm, control of fungal infection vs untreated plants
[10] = wheat (cultivar Yuma), sprayed at 100 ppm, control of fungal infection vs untreated plants
[11] = wheat (cultivar Yuma), sprayed at 100 ppm, inoculated after 24 hours, control of fungal infection vs untreated plants
[12] = wheat plants sprayed at 100 ppm, control vs untreated plants

| SMILES | RHIZSO in vitro Growth Inhibition [2] | SEPTTR in vitro Growth Inhibition [3] | LEPTNO in vitro Growth Inhibition [4] | USTIMA in vitro Growth Inhibition (Ustilago maydis (USTIMA)) | PUCCRT in vivo 1 Day Protectant [7, 10] | LEPTNO in vivo 1 Day Protectant [8, 10] | ERYSGT in vivo 1 Day Protectant (Erysiphe graminis—ERYSGT) | further results |
| --- | --- | --- | --- | --- | --- | --- | --- | --- |
| O=C(N[C@H]1CC2CC1[C@@H]1CCC[C@H]21)c1ncccc1O (stereo partly drawn) [Compound 206] | + (key: +: at least 80% growth inhibition; −: less than 80% growth inhibition) | + (key: +: at least 80% growth inhibition; −: less than 80% growth inhibition) | + (key: +: at least 80% growth inhibition; −: less than 80% growth inhibition) | − (key: +: at least 80% growth inhibition; −: less than 80% growth inhibition) | − (<25% control of fungal infection) | − (<25% control of fungal infection) | − (<25% control of fungal infection) | PYRIOR in vitro Growth Inhibition [1]: + (at least 80% growth inhibition); PHYTIN in vitro Growth Inhibition [5]: − (less than 80% growth inhibition); PHYTIN in vivo 1 Day Protectant [6, 9]: − (<25% control of fungal infection); SEPTTR in vivo 1 Day Protectant (Septoria tritici—SEPTTR; [11]): − (<25% control of fungal infection) |
| COc1ccnc(C(=O)N[C@H]2C[C@@H](O[Si](C)(C)C(C)(C)C)O[C@@H](C)[C@@H]2OCc2ccccc2)c1O [Compound 328] | − (key: +: at least 80% growth inhibition; −: less than 80% growth inhibition) | − (key: +: at least 80% growth inhibition; −: less than 80% growth inhibition) | − (key: +: at least 80% growth inhibition; −: less than 80% growth inhibition) | − (key: +: at least 80% growth inhibition; −: less than 80% growth inhibition) |  |  |  |  |
| COc1ccnc(C(=O)NC2CCN(Cc3ccccc3)CC2)c1O.O=C(O)/C=C\C(=O)O [Compound 305] | − (key: +: at least 80% growth inhibition; −: less than 80% growth inhibition) | − (key: +: at least 80% growth inhibition; −: less than 80% growth inhibition) | − (key: +: at least 80% growth inhibition; −: less than 80% growth inhibition) | − (key: +: at least 80% growth inhibition; −: less than 80% growth inhibition) | − (<25% control of fungal infection) | − (<25% control of fungal infection) | − (<25% control of fungal infection) | pest or weed control at 100 ppm [6]: 75 to 100%; SEPTTR in vivo 1 Day Protectant (Septoria tritici—SEPTTR; [11]): − (<25% control of fungal infection) |
| COc1ccnc(C(=O)N[C@@H]2C[C@@H](O[Si](C)(C)C(C)(C)C)O[C@@H](C)[C@@H]2OC)c1O [Compound 326] | − (key: +: at least 80% growth inhibition; −: less than 80% growth inhibition) | − (key: +: at least 80% growth inhibition; −: less than 80% growth inhibition) | − (key: +: at least 80% growth inhibition; −: less than 80% growth inhibition) | − (key: +: at least 80% growth inhibition; −: less than 80% growth inhibition) |  |  |  | pest or weed control at 100 ppm (Septoria tritici—SEPTTR; [11]): 75 to 100% |
| COc1ccnc(C(=O)NC2CCN(Cc3cccc(C(F)(F)F)c3)CC2)c1O.O=C(O)/C=C\C(=O)O.O=C(O)/C=C\C(=O)O [Compound 307] | − (key: +: at least 80% growth inhibition; −: less than 80% growth inhibition) | − (key: +: at least 80% growth inhibition; −: less than 80% growth inhibition) | − (key: +: at least 80% growth inhibition; −: less than 80% growth inhibition) | − (key: +: at least 80% growth inhibition; −: less than 80% growth inhibition) | − (<25% control of fungal infection) | − (<25% control of fungal infection) | + (25-74% control of fungal infection) |  |
| COc1ccnc(C(=O)N[C@@H]2CC3CC2[C@@H](C(=O)OC(C)C)C3)c1O (stereo partly drawn) [Compound 298] |  |  |  |  |  |  |  | inhibition of growth at 25 µg/mL [1]: < 80%; inhibition of growth at 25 µg/mL [2]: > 80%; inhibition of growth [3]: < 80%; inhibition of growth [4]: < 80%; inhibition of growth at 25 µg/mL (Ustilago maydis (USTIMA)): < 80%; inhibition of growth at 25 µg/mL [5]: < 80%; pest or weed control at 100 ppm [6]: < 25%; pest or weed control at 100 ppm [7, 10]: 25 to 74%; pest or weed control at 100 ppm (Septoria tritici—SEPTTR; [11]): 25 to 74%; pest or weed control at 100 ppm [8, 10]: 25 to 74%; pest or weed control at 100 ppm (Erysiphe graminis—ERYSGT): < 25% |
| C[C@H]1C2CC([C@H]3CCC[C@@H]23)[C@@H]1NC(=O)c1ncccc1O (stereo partly drawn) [Compound 207] | − (key: +: at least 80% growth inhibition; −: less than 80% growth inhibition) | + (key: +: at least 80% growth inhibition; −: less than 80% growth inhibition) | + (key: +: at least 80% growth inhibition; −: less than 80% growth inhibition) | − (key: +: at least 80% growth inhibition; −: less than 80% growth inhibition) | − (<25% control of fungal infection) | − (<25% control of fungal infection) | − (<25% control of fungal infection) | PYRIOR in vitro Growth Inhibition [1]: + (at least 80% growth inhibition); PHYTIN in vitro Growth Inhibition [5]: − (less than 80% growth inhibition); PHYTIN in vivo 1 Day Protectant [6, 9]: − (<25% control of fungal infection); SEPTTR in vivo 1 Day Protectant (Septoria tritici—SEPTTR; [11]): − (<25% control of fungal infection) |
| COc1ccnc(C(=O)N[C@@H]2C[C@@H](O[Si](C)(C)C(C)(C)C)O[C@@H](C)[C@@H]2OCc2ccccc2)c1O [Compound 327] | − (key: +: at least 80% growth inhibition; −: less than 80% growth inhibition) | − (key: +: at least 80% growth inhibition; −: less than 80% growth inhibition) | − (key: +: at least 80% growth inhibition; −: less than 80% growth inhibition) | − (key: +: at least 80% growth inhibition; −: less than 80% growth inhibition) |  |  |  | pest or weed control at 100 ppm (Septoria tritici—SEPTTR; [11]): 75 to 100% |
| COC(=O)C(Cc1ccc(OCc2ccccc2)cc1)NC(=O)c1nccc(OC)c1O (single isomer, unassigned) [Compound 338] |  |  |  |  |  |  |  | inhibition of growth at 25 µg/mL [1]: < 80%; inhibition of growth at 25 µg/mL [2]: < 80%; inhibition of growth [3]: < 80%; inhibition of growth [4]: < 80%; inhibition of growth at 25 µg/mL (Ustilago maydis (USTIMA)): > 80%; inhibition of growth at 25 µg/mL [5]: < 80%; pest or weed control at 100 ppm [7, 10]: 75 to 100%; pest or weed control at 100 ppm [8, 10]: 75 to 100% |
| Br.COc1ccnc(C(=O)NC2C[C@@H](Cc3ccccc3)O[C@@H](C)C2)c1O (stereo partly drawn) [Compound 311] | − (key: +: at least 80% growth inhibition; −: less than 80% growth inhibition) | − (key: +: at least 80% growth inhibition; −: less than 80% growth inhibition) | − (key: +: at least 80% growth inhibition; −: less than 80% growth inhibition) | − (key: +: at least 80% growth inhibition; −: less than 80% growth inhibition) | + (25-74% control of fungal infection) | + (25-74% control of fungal infection) | − (<25% control of fungal infection) | pest or weed control at 100 ppm (Septoria tritici—SEPTTR; 24 h): 75 to 100% |
| O=C(Nc1cccc(Oc2cccc(C(F)(F)F)c2)c1)c1nc(Br)ccc1O [Compound 496] |  |  |  |  |  |  |  | PHYTIN in vivo 1 Day Protectant ([6]; tomato plants sprayed at 100 ppm, control vs untreated plants): − (<25% control of fungal infection); PUCCRT in vivo 1 Day Protectant [7, 12]: + (25-74% control of fungal infection); SEPTTR in vivo 1 Day Protectant (Septoria tritici—SEPTTR; wheat plants sprayed at 100 ppm, inoculated after 24 hours, control vs untreated plants): + (25-74% control of fungal infection); LEPTNO in vivo 1 Day Protectant [8, 12]: − (<25% control of fungal infection); pest or weed control at 100 ppm (Erysiphe graminis—ERYSGT): < 25% |
